Values quoted from earlier work as cited in article PMC11007962, “First-in-human study of GFH018, a small molecule inhibitor of transforming growth factor-β receptor I inhibitor, in patients with advanced solid tumors” (BMC Cancer, 2024).

B1: bintrafusp alfa: bifunctional fusion protein targeting TGF-β and PD-L1 (antibody, chains of the INN, looked up, V domains shown)
VH: EVQLLESGGGLVQPGGSLRLSCAASGFTFSSYIMMWVRQAPGKGLEWVSSIYPSGGITFYADTVKGRFTISRDNSKNTLYLQMNSLRAEDTAVYYCARIKLGTVTTVDYWGQGTLVTVSS
VL: QSALTQPASVSGSPGQSITISCTGTSSDVGGYNYVSWYQQHPGKAPKLMIYDVSNRPSGVSNRFSGSKSGNTASLTISGLQAEDEADYYCSSYTSSSTRVFGTGTKVTVL

How the values were obtained:
[1] = tested on: advanced HPV-associated malignancies; design: method as in PMID 33323462; settings: patients with advanced HPV-associated malignancies; comparators are historical data; cited from earlier work
[2] = design: method as in PMID 25488804, PMID 26309397; settings: consecutive regimens; cited from earlier work

Row | Molecule | ORR [1] [%] | cardiac findings in toxicology studies [2]
1 | pembrolizumab: historical comparator in HPV-associated malignancies | 24 | 
2 | nivolumab: historical comparator in HPV-associated malignancies | 24 | 
3 | Cc1cccc(-c2nn3c(c2-c2ccnc4ccc(C(N)=O)cc24)CCC3)n1 [galunsertib, reference compound] |  | cardiac lesions occur
4 | B1 | 35.6 | 
